{"source": "patent US20120022142A1", "about": "“RNA Interference Mediated Inhibition of Signal Transducer and Activator of Transcription 1 (STAT1) Gene Expression Using Short Interfering Nucleic Acid (siNA)” (Merck Sharp & Dohme Corp., priority 2009, published 2012)", "key": {"STAT1 mRNA": {"system": "STAT1 mRNA", "test": "Stat1 mRNA knockdown and EC50 in human bronchial epithelial cells (NHBE)", "assay_type": "cell-based", "conditions": "48 hours post transfection, mean of 3 donors; for pEC50: Stat1 mRNA knockdown; for Maximum mRNA Knockdown: Stat1 mRNA", "procedure": "Human Bronchial Epithelial cells (NHBE cells) obtained from Lonza (Cat. No. CC-2540) were grown at 37 degrees in the presence of 5% CO2 and cultured in BEBM basal medium (Lonza, Cat. No. CC-3171) on Biocoat Collagen1 coated flasks (Becton Dickinson).\nCells were plated in collagen 1 coated plates and cultured in appropriate culture media. The cells were cultured for 24 hours after plating at 37 deg in the presence of 5% CO2. siNAs were diluted in OptiMEM 1 to 1 uM and the transfection agent to 25 ug/ml. For formulation of the siNAs equal volumes of the diluted siNA and delivery lipid were combined and incubated for 20 minutes at room temperature. Cells were meanwhile trypsinised and resuspended in antibiotic free BEBM media at 150,000 cells/ml. 20 ul of the formulated siNA and 80 ul of BEBM media was added per well of a 96 well plate (6 replicates/data point/siNA concentration) so as to give a nine point dose range of the siNAs (100 nM, 30 nM, 10 nM, 3 nM, 1 nM, 0.3 nM, 0.1 nM, 0.03 nM, 0.01 nM). The time of incubation with the transfection agent-siNA complexes were 48 hours with one change of media at 24 hours.\nTotal RNA was isolated from the cells in the 96-well plate format using the Automated SV96 Total RNA Isolation System (Promega) according to the manufacturer's instructions. The Biomek 2000 Laboratory Automation Workstation (Beckman Coulter) was used to apply the transfected cell lysates to a silica membrane. RNase-Free DNase I was then applied directly to the silica membrane to digest contaminating genomic DNA. The bound total RNA was further purified from contaminating salts, proteins and cellular impurities by simple washing steps. Finally, total RNA was eluted from the membrane by the addition of Nuclease-Free Water.\nA series of probes and primers were used for the detection of mRNA transcripts of STAT1, OAS1, and GAPDH (as control/normalisation) in the human cell lines. The assays were performed on an ABI 7900HT instrument according to the manufacturer's instructions.\nWith TaqMan data, critical threshold values (Ct) were converted to copy numbers corresponding to the particular gene analysed in each well of the 384 well plate. Six identical wells were prepared in each plate for a given treatment. […] Determination of the percentage coefficient of variation (CV) (% C.V.=[standard deviation/average]*100) allowed the omitting of wells whose value was an outlier (so that % C.V.<25). Relative abundance (aka relative expression) of a gene was determined by dividing the mean copy number of that gene with its GAPDH counterpart in that particular sample.\nEC50 values were calculated from the data using sigma plot. All calculations of the efficacy and potency of the siNAs were done relative to the non-targeting control siNA."}, "TLR3": {"system": "TLR3", "test": "TLR3 mediated immunostimulation (OAS1 mRNA increase) in NHBE cells", "assay_type": "cell-based, human", "conditions": "% increase in OAS1 mRNA, 0.01-100 nM siNA, n = 3 donors", "procedure": "NHBE cell were treated as describe above in Example 2 and used for the measurement of endosomal TLR3 mediated immunostimulation, with the inclusion of polyI:C as a positive control for OAS1 mRNA upregulation. For the measurement of membrane bound TLR3 mediated immunostimulation, the NHBE cells were cultured at 1200 cells/per 96 well and siNAs administered in PBS in the absence of a delivery vehicle at (100 nM, 30 nM, 10 nM, 3 nM, 1 nM, 0.3 nM, 0.1 nM, 0.03 nM, 0.01 nM).\nCell surface TLR3 mediated immunostimulation responses were measured by recording the % increase in OAS1 mRNA levels when the NHBE cells were treated with the siNAs in the absence of a delivery vehicle. (% increase in OAS1 mRNA levels relative to the PBS dilutant).\nTo determine immunostimulation TLR3 mediated % increase in OAS1(immunostimulatory biomarker) mRNA levels, a nine point dose response was measured using 0.01-100 nM concentration of siNA 25368-DC and siNA 25372-DC.\nEndosomal TLR3 mediated immuno stimulation was measured by recording the % increase in OAS1 mRNA levels when the NHBE cells were transfected with the siNAs. (% increase in OAS1 mRNA levels relative to the transfection agent control). The TLR3 agonist Poly I:C is used as a positive control for OAS1 mRNA induction."}}, "note": "pEC50: −log10 of the molar value. [invAb] = inverted abasic unit; m = 2'-O-methyl; r = 2'-OH (RNA); f = 2'-fluoro", "data": [{"substance": "25368-DC: STAT1 siNA duplex, human target site 782; modified strands SEQ ID NO: 73 and 74 (chain 1 GUAAAGUCAGAAAUGUGAATT; chain 2 UUCACAUUUCUGACUUUACUU; chain 1: DNA at AGT, 2'-fluoro at CU, [invAb] at 5' end, 3' end, backbone not given here; chain 2: sugars from the 5' end rrrmfmfffffmmffffmfmm, backbone not given here)", "values": [{"measurement": "pEC50", "setting": "STAT1 mRNA", "value": 10.22}, {"measurement": "Maximum mRNA Knockdown", "setting": "STAT1 mRNA", "value": 93, "unit": "%"}, {"measurement": "Immunostimulation TLR3 mediated OAS1", "setting": "TLR3", "value": "No significant effect up to 100 nM"}]}, {"substance": "25372-DC: STAT1 siNA duplex, human target site 968; modified strands SEQ ID NO: 81 and 82 (chain 1 UUGACAAUAAGAGAAAGGATT; chain 2 UCCUUUCUCUUAUUGUCAAUU; chain 1: DNA at AGT, 2'-fluoro at CU, [invAb] at 5' end, 3' end, backbone not given here; chain 2: sugars from the 5' end rrrffffffffmffmffmmmm, backbone not given here)", "values": [{"measurement": "pEC50", "setting": "STAT1 mRNA", "value": 9.30}, {"measurement": "Maximum mRNA Knockdown", "setting": "STAT1 mRNA", "value": 96, "unit": "%"}, {"measurement": "Immunostimulation TLR3 mediated OAS1", "setting": "TLR3", "value": "No significant effect up to 100 nM"}]}]}
